The text below walks through data of patent publication US20240270762A1, “PENICILLIN-BINDING PROTEIN INHIBITORS” (priority 2021, published 2024).

≈ marks a conversion by molar mass, not a printed value. Where only a bound is given, the exact number is not on record here.

One test relates to P. aeruginosa CDC-0110. The test can be described thus: microbe, parasite or virus in culture. It counts as cell-based. Particulars: Pseudomonas aeruginosa, CDC0110, read-out: Minimum inhibitory concentration, P. aeruginosa CDC-0110.
Another test relates to P. aeruginosa CDC-0095. Kind of test: microbe, parasite or virus in culture. It counts as cell-based. As to conditions: Pseudomonas aeruginosa, CDC0095, read-out: Minimum inhibitory concentration, P. aeruginosa CDC-0095.
For test [1], the target named is T1, PBP1a from Acinetobacter baumannii (ATCC 19606) (Acinetobacter baumannii, UniProt A0ABX6CK30).
T1 sequence (A0ABX6CK30 1-851): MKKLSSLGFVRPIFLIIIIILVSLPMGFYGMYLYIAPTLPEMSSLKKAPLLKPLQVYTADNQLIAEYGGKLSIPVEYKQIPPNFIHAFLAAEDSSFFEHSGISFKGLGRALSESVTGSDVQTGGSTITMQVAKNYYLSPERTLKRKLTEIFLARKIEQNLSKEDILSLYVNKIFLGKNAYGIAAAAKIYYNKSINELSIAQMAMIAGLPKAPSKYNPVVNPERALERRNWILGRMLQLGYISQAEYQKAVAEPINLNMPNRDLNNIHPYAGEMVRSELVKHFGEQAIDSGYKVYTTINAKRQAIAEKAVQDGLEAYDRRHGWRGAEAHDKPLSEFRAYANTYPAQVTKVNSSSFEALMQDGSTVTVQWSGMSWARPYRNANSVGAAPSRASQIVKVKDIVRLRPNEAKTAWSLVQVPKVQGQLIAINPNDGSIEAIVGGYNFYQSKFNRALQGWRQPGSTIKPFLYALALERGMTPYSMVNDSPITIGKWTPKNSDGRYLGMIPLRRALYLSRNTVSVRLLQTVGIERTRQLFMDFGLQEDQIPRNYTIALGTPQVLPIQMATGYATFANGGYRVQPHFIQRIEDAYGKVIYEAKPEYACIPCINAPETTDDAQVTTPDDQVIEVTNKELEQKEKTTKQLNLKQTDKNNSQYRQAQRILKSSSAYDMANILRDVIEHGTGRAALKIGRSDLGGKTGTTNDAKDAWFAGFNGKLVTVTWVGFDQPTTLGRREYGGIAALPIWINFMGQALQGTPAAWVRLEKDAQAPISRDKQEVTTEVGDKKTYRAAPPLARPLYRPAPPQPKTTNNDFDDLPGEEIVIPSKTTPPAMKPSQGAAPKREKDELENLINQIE
Kind of test: Bocillin-FL fluorescence polarization competition binding, A. baumannii PBP1a. As to conditions: fluorescence polarization competition binding assay using Bocillin-FL; read-out: A. baumannii PBP1a Potency. In outline:
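Purified PBPs pre-incubated with inhibitor (E. coli PBP3 1.5 μM, 30 min; P. aeruginosa PBP3 0.75 μM, A. baumannii PBP1a 1 μM and PBP3 0.2 μM, 15 min), then Bocillin-FL 0.1 μM (0.05 μM for PBP1a) added; FP read up to 60 min. EC50 = concentration halving bound Bocillin-FL.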
In general terms: In fluorescence polarisation assays a small probe gives low polarisation when free and higher when bound to something large.

The next test has as its target A. baumannii PBP2 (Acinetobacter baumannii, UniProt D0C8Z9). The test can be described thus: Bocillin-FL competition binding via gel filtration, A. baumannii PBP2. In outline:
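Enzyme pre-incubated with increasing inhibitor concentrations, then Bocillin-FL added for 15 min further incubation. Bocillin-FL-bound PBP separated by gel filtration and fluorescence read. EC50 from fitting fraction PBP bound vs inhibitor concentration to a Hill-type equation (ymin, ymax, n).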

In another test the test system is A. baumannii CDC-0036. The test can be described thus: microbe, parasite or virus in culture. It counts as cell-based. Particulars: Acinetobacter baumannii, CDC0036, read-out: MIC, A. baumannii CDC-0036.
Another test deals with P. aeruginosa ATCC 27853. Kind of test: microbe, parasite or virus in culture. As to conditions: Pseudomonas aeruginosa, ATCC27853, read-out: Minimum inhibitory concentration, P. aeruginosa ATCC 27853. It counts as cell-based.

A. baumannii PBP2, sequence (D0C8Z9 whole entry): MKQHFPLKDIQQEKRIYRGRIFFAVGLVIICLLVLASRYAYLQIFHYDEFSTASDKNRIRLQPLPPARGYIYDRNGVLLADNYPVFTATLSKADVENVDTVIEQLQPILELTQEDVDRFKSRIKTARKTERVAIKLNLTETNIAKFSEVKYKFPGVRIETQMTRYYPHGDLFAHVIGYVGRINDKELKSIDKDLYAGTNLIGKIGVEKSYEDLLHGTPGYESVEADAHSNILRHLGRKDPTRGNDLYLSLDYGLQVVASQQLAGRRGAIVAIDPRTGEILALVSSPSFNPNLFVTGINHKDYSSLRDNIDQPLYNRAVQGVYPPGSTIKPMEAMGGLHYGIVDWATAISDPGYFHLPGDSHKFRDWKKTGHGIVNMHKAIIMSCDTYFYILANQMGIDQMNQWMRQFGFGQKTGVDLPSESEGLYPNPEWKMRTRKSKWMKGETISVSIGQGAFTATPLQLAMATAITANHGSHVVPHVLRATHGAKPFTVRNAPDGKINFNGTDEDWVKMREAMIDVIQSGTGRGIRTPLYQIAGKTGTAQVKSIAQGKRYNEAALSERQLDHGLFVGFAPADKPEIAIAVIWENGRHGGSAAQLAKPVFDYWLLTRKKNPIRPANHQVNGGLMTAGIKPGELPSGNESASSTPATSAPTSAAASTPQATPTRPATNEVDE

Regarding `O=C(O)c1c(F)ccc2c1OB(O)[C@@H](NC(=O)C(NC(=O)N1CCN(C3CCN(C(=O)Nc4ccc(F)c(O)c4F)CC3)C1=O)c1cc(F)c(O)c(O)c1Cl)C2` (stereo partly drawn) [Example 452, (3R)-3-(2-(2-chloro-5-fluoro-3,4-dihydroxyphenyl)-2-(3-(1-((2,4-difluoro-3-hydroxyphenyl)carbamoyl)piperidin-4-yl)-2-oxoimidazolidine-1-carboxamido)acetamido)-7-fluoro-2-hydroxy-3,4-dihydro-2H-benzo[e][1,2]oxaborinine-8-carboxylic acid], the MIC in the test on P. aeruginosa CDC-0110 is below 1 µg/mL; in the test with P. aeruginosa CDC-0095, 2 to 4 µg/mL (≈ 2.47 to 4.95 µM); in the test on A. baumannii CDC-0036, 2 to 4 µg/mL (≈ 2.47 to 4.95 µM); in the test with P. aeruginosa ATCC 27853, 2 to 4 µg/mL (≈ 2.47 to 4.95 µM). Besides, the IC50 in test [1] was above 250 µM. Further, the EC50 (in general, the concentration that produces a half-maximal response) at A. baumannii PBP2 was below 10 µM.

As for `O=C(O)c1c(F)ccc2c1OB(O)[C@@H](NC(=O)C(NC(=O)N1CCN(C3CCN(C(=O)Nc4cc(O)ccc4F)CC3)C(=O)C1=O)c1cc(F)c(O)c(O)c1Cl)C2` (stereo partly drawn) [Example 479, (3R)-3-(2-(2-chloro-5-fluoro-3,4-dihydroxyphenyl)-2-(4-(1-((2-fluoro-5-hydroxyphenyl)carbamoyl)piperidin-4-yl)-2,3-dioxopiperazine-1-carboxamido)acetamido)-7-fluoro-2-hydroxy-3,4-dihydro-2H-benzo[e][1,2]oxaborinine-8-carboxylic acid], the MIC with P. aeruginosa CDC-0110 was below 1 µg/mL; in the test on P. aeruginosa CDC-0095 it was below 1 µg/mL; in the test on A. baumannii CDC-0036 it was below 1 µg/mL; in the test on P. aeruginosa ATCC 27853 it was 2 to 4 µg/mL (≈ 2.44 to 4.88 µM). Further, the IC50 in test [1] is above 250 µM. At A. baumannii PBP2, this compound gave an EC50 of 10 to 50 µM.

For `O=C(O)c1c(F)ccc2c1OB(O)[C@@H](NC(=O)C(NC(=O)N1CCN(C3CCN(C(=O)Nc4cc(O)cc(F)c4)CC3)C(=O)C1=O)c1cc(F)c(O)c(O)c1Cl)C2` (stereo partly drawn) [Example 481, (3R)-3-(2-(2-chloro-5-fluoro-3,4-dihydroxyphenyl)-2-(4-(1-((3-fluoro-5-hydroxyphenyl)carbamoyl)piperidin-4-yl)-2,3-dioxopiperazine-1-carboxamido)acetamido)-7-fluoro-2-hydroxy-3,4-dihydro-2H-benzo[e][1,2]oxaborinine-8-carboxylic acid], the MIC was below 1 µg/mL with P. aeruginosa CDC-0110, below 1 µg/mL in the test with P. aeruginosa CDC-0095, below 1 µg/mL in the test on A. baumannii CDC-0036 and 2 to 4 µg/mL (≈ 2.44 to 4.88 µM) with P. aeruginosa ATCC 27853. Further, the IC50 in test [1] is above 250 µM. Also, the 50% effective concentration (EC50) on A. baumannii PBP2 was below 10 µM.

`O=C(O)c1c(F)ccc2c1OB(O)[C@@H](NC(=O)[C@H](NC(=O)N1CCN(C3CCN(C(=O)Nc4cccc(O)c4Cl)CC3)C(=O)C1=O)c1cc(F)c(O)c(O)c1Cl)C2` [Example 482, (R)-3-((R)-2-(4-(1-((2-chloro-3-hydroxyphenyl)carbamoyl)piperidin-4-yl)-2,3-dioxopiperazine-1-carboxamido)-2-(2-chloro-5-fluoro-3,4-dihydroxyphenyl)acetamido)-7-fluoro-2-hydroxy-3,4-dihydro-2H-benzo[e][1,2]oxaborinine-8-carboxylic acid]: the MIC in the test with P. aeruginosa CDC-0110 is 2 to 4 µg/mL (≈ 2.39 to 4.79 µM); in the test with P. aeruginosa CDC-0095, below 1 µg/mL; in the test with A. baumannii CDC-0036 it was below 1 µg/mL; with P. aeruginosa ATCC 27853, 2 to 4 µg/mL (≈ 2.39 to 4.79 µM). Also, the IC50 in test [1] was above 250 µM. The compound also displayed an EC50 on A. baumannii PBP2 of 10 to 50 µM.

As for `O=C(O)c1c(F)ccc2c1OB(O)[C@@H](NC(=O)C(NC(=O)N1CCN(C3CCN(C(=O)Nc4ccc(F)c(O)c4)CC3)C(=O)C1=O)c1cc(F)c(O)c(O)c1Cl)C2` (stereo partly drawn) [Example 480, (3R)-3-(2-(2-chloro-5-fluoro-3,4-dihydroxyphenyl)-2-(4-(1-((4-fluoro-3-hydroxyphenyl)carbamoyl)piperidin-4-yl)-2,3-dioxopiperazine-1-carboxamido)acetamido)-7-fluoro-2-hydroxy-3,4-dihydro-2H-benzo[e][1,2]oxaborinine-8-carboxylic acid], the MIC was 2 to 4 µg/mL (≈ 2.44 to 4.88 µM) in the test with P. aeruginosa CDC-0110, below 1 µg/mL in the test on P. aeruginosa CDC-0095, 2 to 4 µg/mL (≈ 2.44 to 4.88 µM) in the test with A. baumannii CDC-0036 and 2 to 4 µg/mL (≈ 2.44 to 4.88 µM) in the test with P. aeruginosa ATCC 27853. Besides, in test [1], the IC50 is above 250 µM. At A. baumannii PBP2, this compound yielded an EC50 of 10 to 50 µM.

As for `O=C(O)c1c(F)ccc2c1OB(O)[C@@H](NC(=O)[C@H](NC(=O)N1CCN(C3CCN(C(=O)Nc4ccc(F)c(O)c4)CC3)C1=O)c1cc(F)c(O)c(O)c1Cl)C2` (single isomer, unassigned) [Example 449], the MIC with P. aeruginosa CDC-0110, in the test with P. aeruginosa CDC-0095, in the test with A. baumannii CDC-0036 and in the test on P. aeruginosa ATCC 27853 was below 1 µg/mL throughout. Besides, the IC50 in test [1] is above 250 µM. At A. baumannii PBP2, this compound registered an EC50 below 10 µM.

For `O=C(O)c1c(F)ccc2c1OB(O)[C@@H](NC(=O)[C@H](NC(=O)N1CCN(C3CCN(C(=O)Nc4cc(O)ccc4Cl)CC3)C1=O)c1cc(F)c(O)c(O)c1Cl)C2` (single isomer, unassigned) [Example 448], the MIC in the test on P. aeruginosa CDC-0110, with P. aeruginosa CDC-0095, in the test on A. baumannii CDC-0036 and with P. aeruginosa ATCC 27853 was below 1 µg/mL in each case. Further, in test [1], the IC50 was above 250 µM. The same compound showed an EC50 on A. baumannii PBP2 below 10 µM.

As to `O=C(O)c1c(F)ccc2c1OB(O)[C@@H](NC(=O)C(NC(=O)N1CCN(C3CCN(C(=O)Nc4cc(O)ccc4Cl)CC3)C(=O)C1=O)c1cc(F)c(O)c(O)c1Cl)C2` (stereo partly drawn) [Example 483, (3R)-3-(2-(2-chloro-5-fluoro-3,4-dihydroxyphenyl)-2-(4-(1-((2-chloro-5-hydroxyphenyl)carbamoyl)piperidin-4-yl)-2,3-dioxopiperazine-1-carboxamido)acetamido)-7-fluoro-2-hydroxy-3,4-dihydro-2H-benzo[e][1,2]oxaborinine-8-carboxylic acid], the MIC with P. aeruginosa CDC-0110, in the test on P. aeruginosa CDC-0095, in the test on A. baumannii CDC-0036 and with P. aeruginosa ATCC 27853 was 2 to 4 µg/mL (≈ 2.39 to 4.79 µM) in each case. The IC50 in test [1] was above 250 µM. Further, on A. baumannii PBP2, the EC50 was in the range of 10 to 50 µM.

Regarding `O=C(O)c1c(F)ccc2c1OB(O)[C@@H](NC(=O)[C@H](NC(=O)N1CCN(C3CCN(C(=O)Nc4c(F)ccc(O)c4F)CC3)C1=O)c1cc(F)c(O)c(O)c1Cl)C2` (single isomer, unassigned) [Example 454], the MIC was below 1 µg/mL in the test on P. aeruginosa CDC-0110, 2 to 4 µg/mL (≈ 2.47 to 4.95 µM) with P. aeruginosa CDC-0095, below 1 µg/mL in the test on A. baumannii CDC-0036 and 2 to 4 µg/mL (≈ 2.47 to 4.95 µM) with P. aeruginosa ATCC 27853. The IC50 in test [1] was above 250 µM. For the same compound, the EC50 at A. baumannii PBP2 was below 10 µM.

As for `O=C(O)c1c(F)ccc2c1OB(O)[C@@H](NC(=O)[C@H](NC(=O)N1CCN(C3CCN(C(=O)Nc4cc(O)cc(F)c4)CC3)C1=O)c1cc(F)c(O)c(O)c1Cl)C2` (single isomer, unassigned) [Example 450], the MIC in the test on P. aeruginosa CDC-0110, with P. aeruginosa CDC-0095, with A. baumannii CDC-0036 and with P. aeruginosa ATCC 27853 was below 1 µg/mL in each case. Moreover, the IC50 in test [1] was above 250 µM. The compound also registered an EC50 on A. baumannii PBP2 below 10 µM.
